Numbering of substitutions follows the chain as printed. Like-named read-outs stand apart in the source and are kept apart here. Square brackets hold non-standard residues; d marks the D form. Ends that are not written are not given here. pS = N[C@@H](COP(=O)(O)O)C(=O)O
Key:
Experiment in all cases: PDK1 activity assay with T308tide
Type in all cases: biochemical
[1] = molecular target: T1, GST-PDK1 [Ile119Ala] (Homo sapiens, UniProt O15530, I119A); conditions: for AC50 / Max. activity: GST-PDK1 [Ile119Ala]
T1 construct: different protein constructs, comprising the full length protein or the catalytic domain alone; made in house; host or cells: HEK293 cells (pEBG-2T-PDK1 mutant)
T1 sequence (O15530 1-556 I119A): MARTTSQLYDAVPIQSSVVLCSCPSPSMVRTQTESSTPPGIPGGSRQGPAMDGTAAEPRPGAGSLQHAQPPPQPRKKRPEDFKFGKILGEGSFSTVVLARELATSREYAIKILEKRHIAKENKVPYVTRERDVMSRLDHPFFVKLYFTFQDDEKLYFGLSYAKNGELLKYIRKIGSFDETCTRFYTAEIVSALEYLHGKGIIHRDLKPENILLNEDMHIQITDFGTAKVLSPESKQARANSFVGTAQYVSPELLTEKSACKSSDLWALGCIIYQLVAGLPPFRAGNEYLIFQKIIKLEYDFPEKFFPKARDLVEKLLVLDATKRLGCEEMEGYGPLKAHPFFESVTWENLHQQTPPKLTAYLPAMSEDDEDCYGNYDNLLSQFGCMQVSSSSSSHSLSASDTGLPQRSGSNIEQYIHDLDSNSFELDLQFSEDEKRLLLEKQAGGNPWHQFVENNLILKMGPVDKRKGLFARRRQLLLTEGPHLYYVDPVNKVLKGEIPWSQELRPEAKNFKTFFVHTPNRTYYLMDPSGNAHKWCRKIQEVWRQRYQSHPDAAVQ
Procedure: (§1) Protein kinase activity tests were performed essentially as previously described (Balendran et al., 2000; Biondi et al., 2000; Biondi et al., 2001). Substrates used were either MBP (for PKCζ or polypeptides (Crosstide for PKB, S6K, SGK and PRK2; T308tide for PDK1, and Kemptide for PKA). PKA (Sigma) was measured in the presence of 100 μM cAMP. Alternatively, assays were performed in a 96 well format, aliquots spotted on p81 phosphocellulose papers (Whatmann), washed in 0.01% phosphoric acid, dried, and then exposed and analysed using Phospholmager technology (Storm, Molecular Dynamics). Activity measurements were performed in duplicates with less than 10% difference between duplicate pairs. Experiments were repeated at least twice, although most of the experiments were repeated multiple times, with similar results.
(§2) PDK1 activity assay was performed in a 20 μl mix containing 50 mM Tris-HCl pH 7.5, 0.05 mg/ml BSA, 0.1% β-mercaptoethanol, 10 mM MgCl2, 100 μM [γ^32P]ATP (5-50 cpm/pmol), 0.003% Brij, 150 ng PDK1, and T308tide (from 0.05 to 1 mM). PDK1 specific activity was approximately 5 U/mg (when measured at 1 mM T308tide). The effect of small compounds on PDK1 was repeated with proteins from different purification batches and with different protein constructs, comprising the full length protein or the catalytic domain alone, with similar results. […] This variability may be due to the PIFtide/compound-stimulated autophosphorylation of the activation loop in certain preparations having less than a 1:1 molar phosphorylation stoichiometry at this site.
(§3) PDK1 activity was measured at room temperature using a polypeptide substrate derived from the activation loop phosphorylation site of PKB, T308tide (0.1 mM). […] GST-PDK1 wt was purified in numerous occasions and the maximal activation level of different batches varied between 3 and 8 fold activation with PIFtide or compound 1. Variations in the basal activity and fold activation were also observed in mutants. Therefore, comparisons in the maximal level of activation between mutants should be performed with care. The data shown are from an experiment where PIFtide concentrations were tested between 50 nM and 20 µM and compound 1 concentrations were between 5 μM and 200 μM, in triplicate. AC50 and max. activity were estimated by fitting the data to a hyperbola using Kaleidagraph software. One Unit of PDK1 activity was defined as the amount required to catalyse the phosphorylation of 1 nmol of the T308tide in 1 min.

[2] = molecular target: T2, GST-PDK1 [Val127Leu] (Homo sapiens, UniProt O15530, V127L); conditions: for activation of PDK1 mutant (in words): PDK1[Val127Leu]
T2 construct: different protein constructs, comprising the full length protein or the catalytic domain alone; made in house; host or cells: HEK293 cells (pEBG-2T-PDK1 mutant)
T2 sequence (O15530 1-556 V127L): T1 sequence (O15530 1-556 I119A) with A119I, V127L
Procedure: as §1, §2, §3

[3] = molecular target: T3, GST-PDK1 wt (Homo sapiens, UniProt O15530); conditions: for PDK1 (%) activity: 1% DMSO = 100%; for activation of PDK1 (in words): PDK1 wild type
T3 construct: different protein constructs, comprising the full length protein or the catalytic domain alone; made in house; host or cells: HEK293 cells (pEBG-2T-PDK1)
T3 sequence (O15530 1-556): T1 sequence (O15530 1-556 I119A) with A119I
Procedure: as §1, §2, §3

[4] = GST-PDK1 wt, T308tide 0.1 mM, read-out: AC50

Row | AC50 [1] [µM] | Max. activity [1] [U/mg] | AC50 ([2]; GST-PDK1 [Val127Leu]) | PDK1 (%) activity ([3]; 20 μM compound) [%] | PDK1 (%) activity ([3]; 200 μM compound) [%] | AC50 ([3]; FIG. 2B, read-out: AC50 of PDK1 activation) [µM] | Max. activity ([3]; GST-PDK1 wt, T308tide 0.1 mM) [U/mg] | AC50 [3, 4] [µM] | activation of PDK1 (in words) [3] | Max. activity ([2]; GST-PDK1 [Val127Leu]) [U/mg] | AC50 ([2]; GST-PDK1 [Val127Leu], read-out: AC50) [µM] | activation of PDK1 mutant (in words) [2] | activation of PDK1 mutant (in words) ([1]; Ile119 mutant, P-HM-RSK 20 μM) | Compound
1 | 90 ± 20 | 2.1 ± 0.23 | No Effect | 234 | 370 | 25 | 1.1 ± 0.07 | 34 ± 9 | activated PDK1 | – | – | – | – | O=C(O)CSC(CC(=O)c1ccc(Cl)cc1)c1ccccc1 (stereo not shown) [Compound 1]
2 | – | – | – | 109 | 124 | – | – | – | inactive | – | – | – | – | COC(=O)CSC(CC(=O)c1ccc(Cl)cc1)c1ccccc1 (stereo not shown) [Compound 2]
3 | 0.66 ± 0.14 | 2.58 ± 0.17 | – | – | – | – | 0.9 ± 0.05 | 0.11 ± 0.03 | – | 0.99 ± 0.08 | 0.12 ± 0.03 | fully activated | – | REPRILSEEEQEMFRDFDYIADWC [PIFtide, reference compound]
4 | – | – | – | – | – | – | – | – | activated | – | – | fully activated | completely abolished | P-HM-RSK: phosphorylated HM polypeptide of RSK: KGAGGGGFRGFS(P)FVA (KGAGGGGFRGF[pS]FVA)

Reference: patent US20110152166A1, “METHOD OF MODULATION OF PROTEIN PHOSPHORYLATION-DEPENDENT CONFORMATIONAL TRANSITIONS WITH LOW MOLECULAR WEIGHT COMPOUNDS” (priority 2006, published 2011)
